In patent US9763940B2, “Therapeutic use of P75 receptor antagonists” (Sanofi, priority 2011, dated 2017):
Where a name gives a salt, the structure may show the parent alone.

What was measured:
[1] = system: SHR male rats, characterized by overactive bladder (OAB); assay: Cystometry after acute oral treatment in SHR rats with spontaneous overactive bladder; format: in vivo, rat; conditions: % of control period, mean±SEM
Protocol: (§1) Male adult SHR/N Ico rats (250 g; Charles River Italy), were housed 7 days prior to the surgery with free access to standard chow and water. Animals were used in accordance with sanofi international ethical code and the international principles governing the care and treatment of laboratory animals, (E.E.E Council Directive 86/609, DJL358, 1 Cec. 12, 1987) in a fully accredited AAALAC facility.
(§2) A lower midline abdominal incision was performed under general anesthesia with 2-3% isoflurane using aseptic techniques. Their body temperature was maintained at 37° C. using a homeothermic blanket. Polyethylene tubing was inserted into the dome of the bladder and secured in place with a 6-0 nylon purse-string suture. The distal end of the tubing was sealed, tunneled subcutaneously, and externalized at the back of the neck, out of the animal's reach. At the moment of the surgery animals were 16 weeks old.
(§3) After one week from surgery, animals were placed in a Small Animal Cystometry Lab Station (MED Associates, St. Albans, Vt.) for urodynamic measurements. Prior to the start of recording the bladder was emptied and the catheter was connected via a T-tube to a pressure transducer and microinjection pump. Isotonic saline (0.9% NaCl at room temperature) was infused into the bladder at a rate of 10 ml per hour. An analytical balance beneath the wire-bottomed animal cage measured the amount of urine voided during continuous cystometry. A single cystometrogram is defined as the simultaneous recording of intravesical pressure, infused volume and voided volume during a single filling-voiding cycle. At least 4 reproducible micturition cycles are recorded (basal period) after the initial stabilization period of 25 to 30 minutes, using MED-CMG software (Catamount Research &Development Company).
Then, vehicle or compounds were administered orally at 2 ml/kg.
Due to kinetic profile of compounds, urodynamic assessment was performed 1 h after treatment and at least 4 reproducible micturition cycles were recorded.
The cystometrograms are analyzed using a specific software, SOF-552 cystometry data analysis.
The following endpoints have been considered (FIG. 1): • 1. Intercontraction intervals (sec) (ICI)—Time between micturition events (micturition interval) • 2. Threshold pressure (mmHg) (TP)—Bladder pressure immediately prior to micturition • 3. Maximum bladder pressure (mmHg) (Max P)—Highest bladder pressure associated with voiding • 4. Minimum bladder pressure (mmHg) (Min P)—Lowest bladder pressure during bladder filling • 5. Infused volume (μl) (Inf. Vol)—Volume of saline infused during the micturition cycle • 6. Average bladder pressure (mmHg) (Aver P)—Average bladder pressure during bladder filling Exclusion Criteria
In order to limit the impact of inter-group or intra-group variability, all data were expressed as % of control period (100%), as mean±standard error of mean (SEM) and were averaged per group of treatment. A one way analysis of variance (ANOVA), followed by Newman-Keuls' test or Dunnett's test, were used. A probability value of p<0.05 was regarded as significant.
Effects of an Acute Treatment with p75 Antagonists on Urodynamic Parameters in SHR Rats Characterized by Spontaneous Overactive Bladder (OAB)
• Vehicle: 0.5% Polysorbate 80 (PS80) solution in buffered methylcellulose (MC 0.6%) • Compound n°1 at 10 mg/kg: suspension (0.5% PS80 plus MC 0.6%) • Compound n°2 at 3, 10, 30 mg/kg: suspension (0.5% PS80 plus MC 0.6%) • Compound n°3 at 10 mg/kg: suspension (0.5% PS80 plus MC 0.6%) • Compound n°4 at 10 mg/kg: suspension (0.5% PS80 plus MC 0.6%) Experimental Design:
In order to investigate the role of compounds according to the invention in the micturition pathway, 5 groups of 4-12 rats are used: • Group 1, Vehicle per os (po) (n=10) • Group 2, Compound n°1 at 10 mg/kg po (n=12) • Group 3, Compound n°2 at 10 mg/kg po (n=6) • Group 4, Compound n°3 at 10 mg/kg po (n=4) • Group 5, Compound n°4 at 10 mg/kg po (n=5) […]

[2] = system: SHR male rats, characterized by overactive bladder (OAB); assay: Cystometry after one-week chronic treatment in SHR rats with spontaneous overactive bladder; format: in vivo, rat; conditions: 10 mg/kg po for 7 days
Protocol: as §1, §2, §3
The cystometrograms are analyzed using a specific software, SOF-552 cystometry data analysis. […]
In order to limit the impact of inter-group or intra-group variability, all data were expressed as % of control period (100%), as mean±standard error of mean (SEM) and were averaged per group of treatment. […]

[3] = 10 mg/kg po, 1 h after treatment, FIG. 2
[4] = 10 mg/kg po, 1 h after treatment, FIG. 3

| SMILES | Intercontraction intervals (ICI) [1, 3] [%] | Infused volume (bladder capacity) [1, 4] [%] | Intercontraction intervals (ICI) ([1]; dose response, 3 mg/kg po, FIG. 4) [%] | Infused volume (bladder capacity) ([1]; dose response, 3 mg/kg po, FIG. 5) [%] | Intercontraction intervals (ICI) ([1]; dose response, 10 mg/kg po, FIG. 4) [%] | Infused volume (bladder capacity) ([1]; dose response, 10 mg/kg po, FIG. 5) [%] | Intercontraction intervals (ICI) ([1]; dose response, 30 mg/kg po, FIG. 4) [%] | Infused volume (bladder capacity) ([1]; dose response, 30 mg/kg po, FIG. 5) [%] | Effect on micturition pressure parameters ([2]; SHR rats) | Intercontraction intervals (ICI) ([2]; cystometry 24 h after last treatment, % of control values, mean±SEM, FIG. 6) [%] | Infused volume (bladder capacity) ([2]; cystometry 24 h after last treatment, % of control values, mean±SEM, FIG. 7) [%] |
| --- | --- | --- | --- | --- | --- | --- | --- | --- | --- | --- | --- |
| O=C(CN1CC2CCC(C1)N2c1ncc(F)cn1)N1CC=C(c2ccc(Cl)c(C(F)(F)F)c2)CC1 [compound n°1, 1-[4-(4-chloro-3-trifluoromethyl-phenyl)-3,6-dihydro-2H-pyridin-1-yl]-2-[8-(5-fluoro-pyrimidin-2-yl)-3,8-diaza-bicyclo[3.2.1]oct-3-yl]-ethanone] | 195.5±15.4 | 194.9±15.3 |  |  |  |  |  |  |  |  |  |
| C[C@@H]1CN(c2ccc(C(=O)O)cn2)C[C@H](C)N1CC(=O)N1CCc2nn(-c3ccccc3)cc2C1 [compound n°2, 6-{(3S,5R)-3,5-Dimethyl-4-[2-oxo-2-(2-phenyl-2,4,6,7-tetrahydropyrazolo[4,3-c]pyridin-5-yl)ethyl]piperazin-1-yl}nicotinic acid hydrochloride] | 199.7±28.5 | 198.9±28.3 | 160.9±21.8 | 160.8±21.7 | 199.7±28.5 | 198.9±28.3 | 210.5±24.7 | 209.9±24.5 | no effect | 173.8±21.1 | 173.7±21.1 |
| C[C@@H]1CN(c2ccc(C(=O)O)cn2)C[C@H](C)N1CC(=O)N1CC=C(c2cccc3ccoc23)CC1 [compound n°3, 6-{(3S,5R)-4-[2-(4-benzofuran-7-yl-3,6-dihydro-2H-pyridin-1-yl)-2-oxoethyl]-3,5-dimethylpiperazin-1-yl}nicotinic acid] | 167.2±20.3 | 167.14±20 |  |  |  |  |  |  |  |  |  |
| O=C(CN1CC2CCC(C1)N2c1cccnc1)N1CCc2nn(-c3ccccc3)cc2C1 [compound n°4, 1-(2-phenyl-2,4,6,7-tetrahydropyrazolo[4,3-c]pyridin-5-yl)-2-(8-pyridin-3-yl-3,8-diazabicyclo[3.2.1]oct-3-yl)ethanone] | 186.3±26.9 | 186.2±26.9 |  |  |  |  |  |  |  |  |  |
